Results on two compounds are retold here after patent publication EP0289604A1, “2-METHYLMERCAPTO-3-CYANO-4-(O-DIFLUOROMETHOXYPHENYL)-6-PHENYL-1,4-DIHYDROPYRIDINE” (INSTITUT ORGANICHESKOGO SINTEZA AKADEMII NAUK LATVIISKOI SSR, priority 1986, dated 1988).

Data set [1] has as its system spontan hypertensiven Ratten (SHR). In words: Hypotensive effect in spontaneously hypertensive rats, single intragastric administration. The class given is in vivo. Conditions: for Der hypotensive Effekt, % an SHR nach 48 Stunden: after 48 hours; for Dauer der hypotensiven Wirkung: single intragastric dose 10 mg/kg (similar dose for comparators), time over which the effect is detected or after which it ends.

For data set [2], the system named is spontan hypertensiven Ratten. As to the kind of experiment: Hypotensive effect in spontaneously hypertensive rats, repeated intragastric administration for 10 days. The class given is in vivo. Conditions: SHR.
Data set [3] in a line: Solubility and stability of the substance. Type of data set: physicochemical. The protocol:
Die genannte Verbindung stellt eine kristalline Substanz vom 128 bis I30°C Schm.p. dar. […] Diese Verbindung ist sowohl in kristallinem Zustand als auch in Porm von Lösungen in organischen Lösungsmitteln stabil.

The nature of the next data set: in vivo. To be noted: mouse, ip, white outbred mice, intraperitoneal administration.
Setting [4] is: dose 10 mg/kg, single intragastric administration, after 6 hours.
The mark [5] stands for this setting: dose 10 mg/kg, single intragastric administration.

For `COC(=O)C1=C(C)NC(C)=C(C(=O)OC)C1c1ccccc1[N+](=O)[O-]` [Nifedipine, 2,6-Dimethyl-3,5-dimethoxykarbonyl-4-(o-nithophenyl)-I,4-di-hydropyridin, reference compound], the “Der hypotensive Effekt, % an SHR nach I Stunden” value in data set [1] (dose 10 mg/kg, single intragastric administration, after 1 hour) was found to be 34%. For the same compound, the “Der hypotensive Effekt, % an SHR nach 6 Stunden” value in data set [1] (setting [4]) came to 23%. The “Der hypotensive Effekt, % an SHR nach 24 Stunden” value in data set [1] (dose 10 mg/kg, single intragastric administration, after 24 hours) was 0%. Besides, in data set [1] (setting [5]), the “Der hypotensive Effekt, % an SHR nach 48 Stunden” value came out at 0%. The “Dauer der hypotensiven Wirkung” value in data set [1] came to 6 Stunden.
The LD50 is the dose expected to kill half of the subjects tested. As to `CSC1=C(C#N)C(c2ccccc2OC(F)F)C=C(c2ccccc2)N1` (stereo not shown) [Die erfindungsgemässe Verbindung, 2-Methylmerkapto-3-zyano-4-(o-difluormethoxyphenyl)-6-phenyl-I,4-dihydropyridin], in data set [2] (10 mg/kg intragastric once daily for 10 days), the “systolische Blutdruck herabgesetzt zum 10. Einführungstag” value stood at 26%. Also, the “arterielle Blutdruck erreichte das Ausgangsniveau nach dem Aufhören der Einführung” value in data set [2] (after stopping 10 mg/kg intragastric once daily for 10 days) was at most 3 Tagen. The Stabilität result in data set [3] (in crystalline state and as solutions in organic solvents) is “stabil”. The “Löslichkeit in Methyl-, Äthylalkohol, Azeton, Chloroform” value in data set [3] (organic solvents) was “gut löslich”. Also, the “Löslichkeit in Wasser” value in data set [3] (water) is listed as “praktisch unlöslich”. Besides, in “in vivo”, the median lethal dose (LD50) was above 5000 mg/kg. In addition, in data set [1] (setting [4]), the “Der hypotensive Effekt, % an SHR nach 6 Stunden” value is on record as 24%. The “Der hypotensive Effekt, % an SHR nach 48 Stunden” value in data set [1] (setting [5]) turned out to be 6%. In addition, the “Dauer der hypotensiven Wirkung” value in data set [1] is at most 48 Stunden. Besides, the “systolische Blutdruck herabgesetzt” value in data set [1] (single intragastric dose 10 mg/kg, after 6 hours) is 21%. Moreover, the “Effekt der Senkung des systolischen arteriellen Blutdrucks, Zeit nach der Einführung” value in data set [1] (single intragastric dose 10 mg/kg, onset of effect) is 30 Minuten.
